Experimental data published in EP0017970A1, “Novel beta-lactam derivatives and process for production thereof” (SANRAKU-OCEAN CO., LTD., priority 1979, dated 1980).
In brackets after ≈: the same amount, converted by molar mass.

Experiments:
[1] = Test for concentration in blood (plasma of mouse, bioassay); assay type: in vivo; conditions: sc, subcutaneous, 2 mg/mouse, average on five mice; for Cmax: bioassay with Comamonas terrigena B-996, read-out: Maximum concentration; for half-life: read-out: Half period (period that elapsed until the concentration was reduced to half)
Procedure: Typical species of the compounds of formula (VI-b) were each administered subcutaneously to five mice in a dose of 2 mg. After 5 minutes from the administration, a small amount of blood was periodically drawn from the eyes of the mice into a heparinized capillary tube, and centrifuged. The concentration of the compound in the supernatant liquid (plasma) was determined by a bioassay method using Comamonas terri^gena B-996.

[2] = test system: Staphylococcus aureus Smith strain; experiment: Infection treating test (CD50); assay type: in vivo; conditions: in Mus musculus, sc, 2 h, mice infected intraperitoneally with 5 x 10^5 cells per mouse, subcutaneous injection two hours after the infection
Procedure: The in vivo activities of the compounds of formula (VI-b) were determined by using mice (five per group, male DDY mice, Shizuoka) which had been intraperitoneally infected with Staphylococcus aureus Smith strain in an amount of 5 x 10^5 cells per mouse. Two hours after the infection, an injection containing a sodium salt of each of the compounds of formula (VI-b) was subcutaneously administered to the mice.

Sarcina lutea = experiment: MIC, agar dilution assay; assay type: cell-based; conditions: Micrococcus luteus, 20 h, 35°C for 20 hours, read-out: Antibiotic Activity minimum inhibitory concentration
Procedure: (§1) The antibiotic activities shown in Tables 1-1 to 1-9 above were determined in the following manner. The minimum inhibitory concentrations of the compounds of formula (VI-b) in Tables I-1 to 1-8 and the known compounds in Table 1-9 on the various microorganisms shown in the above tables were measured by an agar dilution assay method using a brain heart infusion agar medium "Difco" (a product of Difco Laboratories Inc.). A sample of the test compound was dissolved in sterile distilled water and diluted to prepare a twofold dilution series of the compound solution. In a betri dish of 9 cm in diameter, 1 ml of the compound solution was added to 9 ml of a molten sterile heart infusion agar medium (Difco Laboratories Inc.) at. about 60°C to prepare an agar plate containing the compound. An overnight culture of each test organism indicated in the above table, which was prepared by stationary cultivation in trypto-soy broth (Eiken Chemi. Co., Ltd.) at 35°C for 18 to 20 hours, was diluted with the trypto-soy broth to give approximately 10^8 cells/ml and the diluted inoculum was inoculated in the agar plate. After cultivating the plate at 35°C for 20 hours, the growth of the organism was observed. The minimum concentration of the compound at which no growth of the microorganism was noted was determined, and defined as the minimum inhibitory concentration of the test compound.

[3] = test system: Citrobacter freundii GN 346; experiment: MIC, agar dilution assay; assay type: cell-based; conditions: GN346, 20 h, 35°C for 20 hours, read-out: Antibiotic Activity minimum inhibitory concentration
Procedure: as §1

Escherichia coli K-12 = experiment: MIC, agar dilution assay; assay type: cell-based; conditions: Escherichia coli, K12, 20 h, 35°C for 20 hours, read-out: Antibiotic Activity minimum inhibitory concentration
Procedure: as §1

Enterobacter sp. E8 = experiment: MIC, agar dilution assay; assay type: cell-based; conditions: Enterobacter, SP.E8, 20 h, 35°C for 20 hours, read-out: Antibiotic Activity minimum inhibitory concentration
Procedure: as §1

[4] = test system: Staphylococcus aureus Smith; experiment: MIC, agar dilution assay; assay type: cell-based; conditions: Staphylococcus aureus, 20 h, 35°C for 20 hours, read-out: Antibiotic Activity minimum inhibitory concentration
Procedure: as §1

[5] = test system: Bacillus subtilis ATCC 6633; experiment: MIC, agar dilution assay; assay type: cell-based; conditions: Bacillus subtilis, ATCC6633, 20 h, 35°C for 20 hours, read-out: Antibiotic Activity minimum inhibitory concentration
Procedure: as §1

[6] = test system: Staphylococcus aureus Russell; experiment: MIC, agar dilution assay; assay type: cell-based; conditions: Staphylococcus aureus, 20 h, 35°C for 20 hours, read-out: Antibiotic Activity minimum inhibitory concentration
Procedure: as §1

[7] = test system: Staphylococcus aureus FDA 209P; experiment: MIC, agar dilution assay; assay type: cell-based; conditions: Staphylococcus aureus, FDA209P, 20 h, 35°C for 20 hours, read-out: Antibiotic Activity minimum inhibitory concentration
Procedure: as §1

[8] = test system: Staphylococcus epidermidis; experiment: MIC, agar dilution assay; assay type: cell-based; conditions: 20 h, 35°C for 20 hours, read-out: Antibiotic Activity minimum inhibitory concentration
Procedure: as §1

Enterobacter cloacae 45 = experiment: MIC, agar dilution assay; assay type: cell-based; conditions: Enterobacter cloacae, 45, 20 h, 35°C for 20 hours, read-out: Antibiotic Activity minimum inhibitory concentration
Procedure: as §1

Proteus mirabilis P6 = experiment: MIC, agar dilution assay; assay type: cell-based; conditions: P6, 20 h, 35°C for 20 hours, read-out: Antibiotic Activity minimum inhibitory concentration
Procedure: as §1

[9] = test system: Enterobacter aerogenes E19; experiment: MIC, agar dilution assay; assay type: cell-based; conditions: Klebsiella aerogenes, E19, 20 h, 35°C for 20 hours, read-out: Antibiotic Activity minimum inhibitory concentration
Procedure: as §1

Alcaligenes faecalis A 1 = experiment: MIC, agar dilution assay; assay type: cell-based; conditions: Alcaligenes faecalis, A1, 20 h, 35°C for 20 hours, read-out: Antibiotic Activity minimum inhibitory concentration
Procedure: as §1

[10] = test system: Klebsiella pneumoniae K-13; experiment: MIC, agar dilution assay; assay type: cell-based; conditions: K13, 35°C for 20 hours, read-out: Antibiotic Activity minimum inhibitory concentration
Procedure: as §1

[11] = test system: Comamonas terrigena B-996; experiment: MIC, agar dilution assay; assay type: cell-based; conditions: Comamonas terrigena, B996, 20 h, 35°C for 20 hours, read-out: Antibiotic Activity minimum inhibitory concentration
Procedure: as §1

Escherichia coli RGN 823 = experiment: MIC, agar dilution assay; assay type: cell-based; conditions: RGN823, 20 h, 35°C for 20 hours, read-out: Antibiotic Activity minimum inhibitory concentration
Procedure: as §1

S. aureus = experiment: Disc diffusion assay in nutrient broth containing 10% horse serum; assay type: cell-based
Description: The compounds of formula (I) provided by this invention show excellent antimicrobial activities in in vitro tests in horse serum as shown in Table IV below.

Compound	Cmax [1]	half-life [1]	ED50 [2]	also measured
CC(O)[C@H]1C(=O)N2C(C(=O)O)=C(Sc3ccncc3)C[C@H]12 (relative stereo) [Table II r7 R1=-OH R2=[drawing] M=H*]	103000 ng/mL	18 min	0.125 mg/kg	
CC(O)[C@@H]1C(=O)N2C(C(=O)O)=C(Sc3ccncc3)C[C@H]12 (relative stereo) [Table II r8 R1=-OH R2=[drawing] M=H**]	29000 ng/mL	13.5 min	0.125 mg/kg	
CC(O)[C@H]1C(=O)N2C(C(=O)O)=C(Sc3ncccn3)C[C@H]12 (relative stereo) [Table II r12 R1=-OH R2=[drawing] M=H*]	54000 ng/mL	25 min	0.25 mg/kg	
CC(O)[C@@H]1C(=O)N2C(C(=O)O)=C(Sc3ncccn3)C[C@H]12 (relative stereo) [Table II r13 R1=-OH R2=[drawing] M=H**]	23300 ng/mL	19 min	0.25 mg/kg	
CC(=O)NCCSC1=C(C(=O)O)N2C(=O)[C@H](C(C)O)[C@H]2C1 (stereo partly shown) [PS-3A.Na, 3-(2-acetamidoethylthio)-6-(1-hydroxyethyl)-7-oxo-1-azabicyclo[3.2.0]hept-2-ene-2-carboxylic acid, reference compound]			4 mg/kg	
CC(=O)NCCSC1=C(C(=O)O)N2C(=O)C(C(C)O)C2C1 (stereo not shown) [PS-3B.Na, 3-(2-acetamidoethylthio)-6-(1-hydroxyethyl)-7-oxo-1-azabicyclo[3.2.0]hept-2-ene-2-carboxylic acid, reference compound]	26300 ng/mL	5 min		
CCC1C(=O)N2C(C(=O)O)=C(SCCNC(C)=O)CC12 (stereo not shown) [PS-5.Na, 3-(2-acetamidoethylthio)-6-ethyl-7-oxo-1-azabicyclo[3.2.0]hept-2-ene-2-carboxylic acid, reference compound]	40000 ng/mL	7 min	1 mg/kg	
CC(=O)NCCSC1=C(C(=O)O)N2C(=O)C(C(C)C)C2C1 (stereo not shown) [PS-6.Na, 3-(2-acetamidoethylthio)-6-isopropyl-7-oxo-1-azabicyclo[3.2.0]hept-2-ene-2-carboxylic acid, reference compound]	23800 ng/mL	5 min	8 mg/kg	
CC(C)C1C(=O)N2C(C(=O)O)=C(SCCN(C)C)CC12 (stereo not shown) [R1=-CH3 R2=-CH2CH2N(CH3)2 M=H]	22000 ng/mL	6.1 min	2 mg/kg	
CCC1C(=O)N2C(C(=O)O)=C(SCCN(C)C)CC12 (stereo not shown) [R1=H R2=-CH2CH2N(CH3)2 M=H]	36200 ng/mL	6 min	0.25 mg/kg	
CCC1C(=O)N2C(C(=O)O)=C(SCCNC(=O)Cc3ccccc3)CC12 (stereo not shown) [R1=H R2=-CH2CH2NHCOCH2-[drawing] M=Na]	2800 ng/mL	6 min		
CCC1C(=O)N2C(C(=O)O)=C(SCCO)CC12 (stereo not shown) [R1=H R2=-CH2CH2OH M=Na]	36900 ng/mL	6 min	1 mg/kg	
CC(C)C1C(=O)N2C(C(=O)O)=C(Sc3ccccn3)CC12 (stereo not shown) [Table I-2 R1=-CH3]				MIC (Sarcina lutea): 0.004 µg/mL (≈ 0.0131 µM); MIC [3]: 50 µg/mL (≈ 164 µM); MIC (Escherichia coli K-12): 12.5 µg/mL (≈ 41.1 µM); MIC (Enterobacter sp. E8): 25 µg/mL (≈ 82.1 µM); MIC [4]: 0.013 µg/mL (≈ 0.0427 µM); MIC [5]: 0.05 µg/mL (≈ 0.164 µM); MIC [6]: 0.013 µg/mL (≈ 0.0427 µM); MIC [7]: 0.007 µg/mL (≈ 0.023 µM); MIC [8]: 0.05 µg/mL (≈ 0.164 µM); MIC (Enterobacter cloacae 45): > 100 µg/mL; MIC (Proteus mirabilis P6): 6.25 µg/mL (≈ 20.5 µM); MIC [9]: 50 µg/mL (≈ 164 µM); MIC (Alcaligenes faecalis A 1): 0.2 µg/mL (≈ 0.657 µM); MIC [10]: 50 µg/mL (≈ 164 µM); MIC [11]: 0.007 µg/mL (≈ 0.023 µM); MIC (Escherichia coli RGN 823): 12.5 µg/mL (≈ 41.1 µM)
CCC1C(=O)N2C(C(=O)O)=C(Sc3ccccn3)CC12 (stereo not shown) [Table I-2 R1=H]				MIC (Sarcina lutea): 0.0008 µg/mL (≈ 0.00276 µM); MIC [3]: 25 µg/mL (≈ 86.1 µM); MIC (Escherichia coli K-12): 6.25 µg/mL (≈ 21.5 µM); MIC (Enterobacter sp. E8): 12.5 µg/mL (≈ 43.1 µM); MIC [4]: 0.012 µg/mL (≈ 0.0413 µM); MIC [5]: 0.012 µg/mL (≈ 0.0413 µM); MIC [6]: 0.012 µg/mL (≈ 0.0413 µM); MIC [7]: 0.006 µg/mL (≈ 0.0207 µM); MIC [8]: 0.012 µg/mL (≈ 0.0413 µM); MIC (Enterobacter cloacae 45): 50 µg/mL (≈ 172 µM); MIC (Proteus mirabilis P6): 3.13 µg/mL (≈ 10.8 µM); MIC [9]: 25 µg/mL (≈ 86.1 µM); MIC (Alcaligenes faecalis A 1): 0.1 µg/mL (≈ 0.344 µM); MIC [10]: 25 µg/mL (≈ 86.1 µM); MIC [11]: 0.003 µg/mL (≈ 0.0103 µM); MIC (Escherichia coli RGN 823): 6.25 µg/mL (≈ 21.5 µM)
CCC1C(=O)N2C(C(=O)O)=C(Sc3ccncc3)CC12 (stereo not shown) [Table II r5 R1=H R2=[drawing] M=H]	70700 ng/mL	16 min	0.063 mg/kg	
CC(C)C1C(=O)N2C(C(=O)O)=C(Sc3ccncc3)CC12 (stereo not shown) [Table II r6 R1=-CH3 R2=[drawing] M=H]	30700 ng/mL	15.2 min	0.5 mg/kg	
CCC1C(=O)N2C(C(=O)O)=C(Sc3ccccn3)CC12 (stereo not shown) [Table II r9 R1=H R2=[drawing] M=H]	48400 ng/mL	29 min	0.125 mg/kg	
CCC1C(=O)N2C(C(=O)O)=C(Sc3ncccn3)CC12 (stereo not shown) [Table II r10 R1=H R2=[drawing] M=H]	23600 ng/mL	22 min	0.25 mg/kg	
CC(C)C1C(=O)N2C(C(=O)O)=C(Sc3ncccn3)CC12 (stereo not shown) [Table II r11 R1=-CH3 R2=[drawing] M=H]	21200 ng/mL	18.2 min	1 mg/kg	
CCC1C(=O)N2C(C(=O)O)=C(SC3CCCCC3)CC12 (stereo not shown) [Table II r14 R1=H R2=[drawing] M=Na]	8240 ng/mL	7.2 min		
CCC1C(=O)N2C(C(=O)O)=C(Sc3ccccc3)CC12 (stereo not shown) [Table II r15 R1=H R2=[drawing] M=Na]	11300 ng/mL	25.2 min		
CCC1C(=O)N2C(C(=O)OC)=C(Br)CC12 (stereo not drawn) [Table IV r4 R=H X=Br M=CH3, methyl 3-bromo-6-ethyl-7-oxo-l-azabicyclo[3.2.0]hept-2-ene-2-carboxylate]				Inhibitory zone diameter (S. aureus): 29.7 mm
CCC1C(=O)N2C(C(=O)OCc3ccccc3)=C(Br)CC12 (stereo not shown) [Table IV r5 R=H X=Br M=[drawing]]				Inhibitory zone diameter (S. aureus): 30.2 mm
CCC1C(=O)N2C(C(=O)OCc3ccc([N+](=O)[O-])cc3)=C(Br)CC12 (stereo not shown) [Table IV r6 R=H X=Br M=[drawing]]				Inhibitory zone diameter (S. aureus): 28.6 mm
CC(C)C1C(=O)N2C(C(=O)OCc3ccc([N+](=O)[O-])cc3)=C(Br)CC12 (stereo not shown) [Table IV r7 R=CH3 X=Br M=[drawing]]				Inhibitory zone diameter (S. aureus): 26.8 mm
CC(O)C1C(=O)N2C(C(=O)OCc3ccc([N+](=O)[O-])cc3)=C(Br)CC12 (stereo not shown) [Table IV r8 R=OH X=Br M=[drawing]]				Inhibitory zone diameter (S. aureus): 31.2 mm
CCC1C(=O)N2C(C(=O)OC)=C(I)CC12 (stereo not drawn) [Table IV r9 R=H X=I M=CH3, methyl 3-iodo-6-ethyl-7-oxo-l-azabicyclo[3.2.0]hept-2-ene-2-carboxylate]				Inhibitory zone diameter (S. aureus): 29.6 mm
CCC1C(=O)N2C(C(=O)OCc3ccccc3)=C(I)CC12 (stereo not shown) [Table IV r10 R=H X=I M=[drawing]]				Inhibitory zone diameter (S. aureus): 30.0 mm
COC(=O)C1=C(I)CC2C(C(C)O)C(=O)N12 (stereo not shown) [Table IV r11 R=OH X=I M=CH3]				Inhibitory zone diameter (S. aureus): 31.0 mm
